What all share (assay): NCI-60 cell line screen, 48 h
Test [1] relates to MCF7.
Test [2] concerns NCI-H23.
Test [3] has as its system OVCAR-3.
Test [4] concerns SNB-75.
For test [5], the system named is UACC-257.
The subject of test [6] is SR.
In test [7] the test system is NCI-H226.
Test [8] deals with SN12C.
For test [9], the system named is MDA-MB-435.
The test system of test [10] is UO-31.
For test [11], the system named is HCC 2998.
The subject of test [12] is KM12.
Test [13] deals with SF-268.
Test [14] deals with DU-145.
Test [15] concerns ACHN.
The test system of test [16] is SK-MEL-28.
Test [17] concerns M14.
Test [18] concerns SF-295.
In test [19] the test system is SF-539.

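Grown in 96-well plates, cells were treated for 48 hours with each compound at five concentrations. Insufficient inhibition: endpoint recorded as highest concentration tested. GI50 marks 50% less growth.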 Calls of active or inactive are those of the source. No stated cut-off is given here; in the data, active = GI50 up to about 1.1 µM and inactive = higher.

Regarding `COC(=O)C1(N2CCOCC2)CCC([C@@H](c2ccccc2)C(C)[N+](=O)[O-])C1` (some centres undefined), the GI50 in test [1] is 21.9 µM (inactive); in [2] it was > 100 µM (inactive); in [3], 18.7 µM (inactive); in [4], 34.5 µM (inactive); in test [5], 28 µM (inactive); in [6], 20.8 µM (inactive). Besides, the GI50 in test [7], in test [8], in [9], in [10], in test [11] and in test [12] was > 100 µM (inactive) each time. Further, the GI50 in [13] is > 100 µM (inactive); in test [14], 19.7 µM (inactive); in [15], > 100 µM (inactive); in test [16], > 100 µM (inactive); in [17], > 100 µM (inactive); in test [18], > 100 µM (inactive). Further, the GI50 in [19] is > 100 µM (inactive).

Consider `CC1NC(=O)c2c(-c3ccccc3)nn(-c3ccccc3)c2NC1=O` (centres undefined), for which the GI50 in test [1] was > 100 µM (inactive); in test [2], > 100 µM (inactive); in [3] it was 37.4 µM (inactive); in test [4] it was > 100 µM (inactive); in test [5], > 100 µM (inactive); in test [6], > 100 µM (inactive). Also, the GI50 in [7], in test [8], in test [9], in [10], in test [11] and in test [12] was > 100 µM (inactive) each time. Moreover, the GI50 in test [13], in test [14], in [15], in [16], in test [17] and in test [18] was > 100 µM (inactive) each time.

Turning to `CSC1SCC2C(=O)N(C)C3(CC3C)C(=O)OCC(NC(=O)c3nc4ccccc4cc3O)C(=O)NC(C)C(=O)N(C)C1C(=O)N(C)C1(CC1C)C(=O)OCC(NC(=O)c1nc3ccccc3cc1O)C(=O)NC(C)C(=O)N2C` (centres undefined), the GI50 is < 0.0001 µM (active) in [1]; < 0.0001 µM (active) in test [2]; < 0.0001 µM (active) in test [3]; < 0.0001 µM (active) in test [4]; 0.1 µM (active) in test [5]; < 0.0001 µM (active) in test [6]. The GI50 in test [7] is < 0.0001 µM (active); in test [8], < 0.0001 µM (active); in test [9], < 0.0001 µM (active); in test [10] it was 0.000449 µM (active); in test [11], < 0.0001 µM (active); in [12] it was < 0.0001 µM (active). The GI50 in [13], in test [14], in test [15], in [16], in [17] and in [18] was < 0.0001 µM (active) each time. The GI50 in test [19] was < 0.0001 µM (active).

Turning to `CC(=O)O[C@H]1C(=O)[C@@]2(C)[C@H]([C@H](OC(=O)C3CCCCC3)[C@]3(O)C[C@H](OC(=O)[C@H](O)[C@@H](NC(=O)OC(C)(C)C)c4ccccc4)C(C)=C1C3(C)C)[C@]1(OC(C)=O)CO[C@@H]1C[C@@H]2O`, the GI50 in [1] is 0.00259 µM (active); in test [2] it was 0.0261 µM (active); in test [3] it was 0.00125 µM (active); in test [4], 0.402 µM (active); in [5], 0.0252 µM (active); in test [6] it was 0.00542 µM (active). In addition, the GI50 in test [7] was 0.0236 µM (active); in [8], 0.0385 µM (active); in test [9], 0.00226 µM (active); in [10], 0.849 µM (active); in [11], 0.0299 µM (active); in [12], 0.00731 µM (active). The GI50 in test [13] is 0.202 µM (active); in test [14], 0.0867 µM (active); in test [15], 0.413 µM (active); in [17] it was 0.00724 µM (active); in [18], 0.027 µM (active); in test [19], 0.00298 µM (active).

Take `C[C@H](CCC(=O)O)[C@H]1CC[C@H]2[C@@H]3C(=O)C[C@@H]4C[C@H](O)CC[C@]4(C)[C@H]3C[C@H](O)[C@]12C`: the GI50 in test [1] is > 100 µM (inactive); in test [2], > 100 µM (inactive); in test [4], 85.5 µM (inactive); in [5], > 100 µM (inactive); in [6], > 100 µM (inactive); in test [7] it was > 100 µM (inactive). The GI50 in test [8], in test [9], in test [10], in test [11], in test [12] and in test [13] was > 100 µM (inactive) throughout. Also, the GI50 in test [14], in [15], in test [16], in test [17] and in test [19] was > 100 µM (inactive) each time.

For the molecule `COCCOC(=O)C(C)=[N+]=[N-]`, the GI50 in [1] is > 100 µM (inactive); in test [2], > 100 µM (inactive); in test [3], > 100 µM (inactive); in test [4], > 100 µM (inactive); in test [5], > 100 µM (inactive); in test [6], 68.1 µM (inactive). Also, the GI50 in [7], in test [8], in test [9], in test [10], in [11] and in [12] was > 100 µM (inactive) each time. In addition, the GI50 in test [13], in test [14], in test [15], in [16] and in test [18] was > 100 µM (inactive) in each case.

`CSc1ncc2c(C#N)c3[nH]c4ccccc4n3c(=O)c2n1`: the GI50 in [1] was 19.7 µM (inactive); in test [2], 14.8 µM (inactive); in test [3], 6.7 µM (inactive); in test [4], 44.7 µM (inactive); in [5], 30.7 µM (inactive); in [6], 9.89 µM (inactive). For the same molecule, the GI50 in test [7] was 34.1 µM (inactive); in test [8] it was 16 µM (inactive); in test [9], 16.9 µM (inactive); in [10], 8.13 µM (inactive); in test [11], 10.9 µM (inactive); in [12], 8.63 µM (inactive). Besides, the GI50 was 28 µM (inactive) in test [13]; 28.8 µM (inactive) in [14]; 33.1 µM (inactive) in test [15]; 16.7 µM (inactive) in test [17]; 9.84 µM (inactive) in [18]; 17.3 µM (inactive) in test [19].

In the case of `C/C(=N\NS(=O)(=O)c1ccc(C)cc1)c1ccccn1`, the GI50 in test [1] was 53.8 µM (inactive); in [2] it was 54.1 µM (inactive); in test [3], 50.7 µM (inactive); in test [4], > 100 µM (inactive); in [5], 81.8 µM (inactive); in test [6], 65 µM (inactive). Moreover, the GI50 in test [7] is 32.9 µM (inactive); in test [9], > 100 µM (inactive); in test [10], 40.5 µM (inactive); in [11], > 100 µM (inactive); in test [12], 43.7 µM (inactive); in [13], 67.3 µM (inactive). The GI50 is > 100 µM (inactive) in test [14]; 26.1 µM (inactive) in test [15]; 98.2 µM (inactive) in [16]; 34.6 µM (inactive) in [17]; 43.3 µM (inactive) in test [18]; 40.8 µM (inactive) in [19].

The values are drawn from ChEMBL document CHEMBL1201862, “PubChem BioAssay data set” (2004).
